# Source: patent publication US8569504B2, “Imidazopyridine compound” (Ono Pharmaceutical Co., Ltd., priority 2009, dated 2013)
# Legend:
# [1] = molecular target: T1, Human chymase (Homo sapiens, UniProt P23946); test: Measurement of human chymase enzyme inhibitory activity; type: biochemical; details: for IC90: concentration at which 90% of enzyme activity was inhibited; for IC50: peptide substrate N-Succinyl-Ala-Ala-Pro-Phe-p-nitroanilide 2.5 mmol/L, 37° C., pH 7.6
# T1 construct: purchased East Coast Biologics
# T1 sequence (P23946 22-247): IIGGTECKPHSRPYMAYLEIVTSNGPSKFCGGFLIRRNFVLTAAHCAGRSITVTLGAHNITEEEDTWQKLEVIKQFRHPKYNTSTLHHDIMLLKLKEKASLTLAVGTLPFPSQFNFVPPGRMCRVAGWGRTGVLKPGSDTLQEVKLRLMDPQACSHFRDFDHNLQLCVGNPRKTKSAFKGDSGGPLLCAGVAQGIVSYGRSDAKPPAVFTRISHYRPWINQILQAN
# Procedure: Human Chymase Pure (hereunder called chymase; East Coast Biologics) was stored in a freezer at −20° C., and diluted with distilled water immediately prior to use. N-Succinyl-Ala-Ala-Pro-Phe-p-nitroanilide (hereunder called the peptide substrate; Sigma Aldrich) was prepared with dimethylsulfoxide (hereunder called DMSO) as a 50 mmol/L solution, and stored in a freezer at −20° C. The compound of the present invention and the comparative compounds were prepared with DMSO as 10 mmol/L solutions, and stored in a freezer at −20° C. On the day of measurement, the solutions of the compound of the present invention and the comparative compound were diluted in stages with 50% DMSO to 10 times concentration of the final target concentration, and the solution were prepared. 10 μL solutions of the compounds of the present invention and the comparative compounds, and 80 μL solution of a peptide substrate (final concentration 2.5 mmol/L) diluted with assay buffer (50 mmol/L Tris-HCl, 150 mmol/L NaCl, 50 units/mL heparin (pH 7.6)) were added to a 96-well microplate, incubated for 10 minutes at 37° C. 10 μL of chymase was added to a final concentration of 0.1 μg/L to initiate enzyme activity. Absorbance at 405 nm was monitored for 5 minutes at 30-second intervals, and the reaction speed (Δm O.D./minute) was measured. 10 μL of 50% DMSO was added to the control well and blank well in place of the solutions of the compound of the present invention and the comparative compound. Moreover, 10 μL of distilled water was added to the blank well in place of chymase. Given 100% as the value of the control well reaction speed minus the blank well reaction speed, the reaction speeds of the wells containing the compound of the present invention and the comparative compounds were calculated as percentages.
# [2] = test system: HepG2 human liver cancer cell lines; test: Measurement of cell toxicity using HepG2 human liver cancer cell lines (ATP, Celltiter Glo); type: cell-based; details: 24 hours of exposure, ATP concentration; concentration that produced toxicity in 10% of cells
# Procedure: (§1) The cells were then exposed to the compound of the present invention and the comparative compounds for 24 hours. The compound of the present invention and the comparative compounds were dissolved with DMSO, and then diluted 100 times with culture liquid comprising L-glutamine, non-essential amino acids and 1% bovine fetal serum which were added to minimum essential medium (MEM). […] The cells were dissolved with the assay buffer in the measurement kit, and the ATP concentration released from the cells was measured based on luciferin-luciferase enzyme activity. Light emission was measured with a SpectraMax plate reader (Molecular Device).
# [3] = as above; type: cell-based; details: human, HepG2 cells; 24 hours of exposure, ATP concentration
# Procedure: as §1
# [4] = Stability experiment using human liver microsomes; type: in vitro ADME; details: 5 μmol/L, 0.5 mg/mL human liver microsomes with NADPH, 15 minutes, 37° C.
# Procedure: 5 μL of the compound of the present invention and each comparative compound (10 mmol/L DMSO solution) was diluted with 195 μL of 50% acetonitrile aqueous solution to prepare 250 μmol/L solutions of the compound of the present invention and comparative compound. 245 μL of 0.5 mg/mL human liver microsomes (0.1 mol/L pH 7.4 phosphate buffer solution) containing NADPH Co factor (NADPH Regenerating System Solution A (BD Bioscience) and NADPH Regenerating System Solution B (BD Bioscience), each diluted 10 times and 50 times with 0.1 mol/L pH 7.4 phosphate buffer (NADP+2.6 mmol/L)) were added to a reaction container that had been warmed in advance to 37° C. in a water bath, and pre-incubated for 5 minutes, after which 5 μL solution of the compound of the present invention and the comparative compound was added to initiate a reaction (final concentration 5 μmol/L). Immediately after initiation 20 μL was collected, and 20 μL was added to 180 μL of acetonitrile containing I.S. (internal standard (warfarin)) to terminate the reaction. 180 μL of 50% acetonitrile aqueous solution was added to this 20 μL on a plate with a protein exclusion filter, stirred and filtered by suction. The filtrate was used as a standard sample. After incubating the reaction solution for 15 minutes, 20 μL of a liver microsome solution was collected, and added to 180 μL of acetonitrile containing I.S. (internal standard (warfarin)) in order to terminate the reaction. 180 μL of 50% acetonitrile aqueous solution was added to this 20 μL on a plate with a protein exclusion filter, stirred and filtered by suction. The filtrate was used as a reaction sample. The survival ratio (%) was calculated by injecting 5 μL of sample solution into a LC-MS/MS (Thermo Scientific Discovery Max), dividing the peak area ratio of the reaction sample (the compound of the present invention and the comparative compound/I.S.) by the peak area ratio of the standard sample, and multiplying by 100.
compound,measurement,setting,value
"Cc1cccc2[nH]cc(Cc3c(-c4ccc5ccccc5c4C(=O)O)nc4ccccn34)c12 [Example 7, 2-[3-[(4-methyl-1H-indol-3-yl)methyl]imidazo[1,2-a]pyridin-2-yl]-1-naphthoic acid]",IC90,[1],63 nM
same,IC50,[1],1 nM
same,Cell toxicity in HepG2 human liver cancer cell lines IC10,[2],58000 nM
same,IC50 at 24 h,[3],132000 nM
same,Human liver Ms stability (survival ratio),[4],93%
"CCn1cc(Cc2c(-c3ccccc3C(=O)O)nc3ccccn23)c2c(C)cccc21 [Example 15, 2-{3-[(1-ethyl-4-methyl-1H-indol-3-yl)methyl]imidazo[1,2-a]pyridin-2-yl}benzoic acid]",IC90,[1],240 nM
same,IC50,[1],30 nM
same,Cell toxicity in HepG2 human liver cancer cell lines IC10,[2],115000 nM
same,IC50 at 24 h,[3],267000 nM
same,Human liver Ms stability (survival ratio),[4],87%
"Cc1cccc2scc(Cn3c(SCCCC(=O)O)nc4ccccc43)c12 [Comparative Compound 1, 4-(1-((4-methylbenzothiophen-3-yl)methyl)benzimidazol-2-ylthio)butanoic acid, reference compound]",Cell toxicity in HepG2 human liver cancer cell lines IC10,[2],45000 nM
same,IC50 at 24 h,[3],81000 nM
"Cc1c(F)ccc2[nH]cc(Cc3c(-c4ccccc4C(=O)O)nc4ccccn34)c12 [Example 19, 2-{3-[(5-fluoro-4-methyl-1H-indol-3-yl)methyl]imidazo[1,2-a]pyridin-2-yl}benzoic acid]",IC90,[1],120 nM
same,IC50,[1],11 nM
same,Cell toxicity in HepG2 human liver cancer cell lines IC10,[2],70000 nM
same,IC50 at 24 h,[3],247000 nM
same,Human liver Ms stability (survival ratio),[4],100%
"Cc1cccc2c1c(Cc1c(-c3ccccc3C(=O)O)nc3ccccn13)cn2C [Example 13, 2-{3-[(1,4-dimethyl-1H-indol-3-yl)methyl]imidazo[1,2-a]pyridin-2-yl}benzoic acid]",IC90,[1],200 nM
same,IC50,[1],28 nM
same,Cell toxicity in HepG2 human liver cancer cell lines IC10,[2],135000 nM
same,IC50 at 24 h,[3],424000 nM
same,Human liver Ms stability (survival ratio),[4],93%
"Cc1ccc2nc(-c3ccccc3C(=O)O)c(Cc3cn(C)c4cccc(C)c34)n2c1 [Example 11, 2-{3-[(1,4-dimethyl-1H-indol-3-yl)methyl]-6-methylimidazo[1,2-a]pyridin-2-yl}benzoic acid]",IC90,[1],270 nM
same,IC50,[1],23 nM
same,Cell toxicity in HepG2 human liver cancer cell lines IC10,[2],248000 nM
same,IC50 at 24 h,[3],> 400000 nM
same,Human liver Ms stability (survival ratio),[4],86%
"Cc1cccc2c1c(Cn1c(Sc3ccccc3C(=O)O)nc3ccccc31)cn2C [Comparative Compound 4, 2-([1-[(1,4-dimethyl-1H-indol-3-yl)methyl]-1H-benzimidazol-2-yl]thio)benzoic acid, reference compound]",IC90,[1],790 nM
same,IC50,[1],75 nM
same,Cell toxicity in HepG2 human liver cancer cell lines IC10,[2],53000 nM
same,IC50 at 24 h,[3],84000 nM
"Cc1cccc2scc(Cc3c(SCCCC(=O)O)nc4ccccn34)c12 [Comparative Compound 2, 4-[3-(4-methyl-benzo[b]thiophen-3-ylmethyl)-imidazo[1,2-a]pyridin-2-ylsulfanyl]butanoic acid, reference compound]",IC90,[1],2800 nM
same,IC50,[1],340 nM
same,Cell toxicity in HepG2 human liver cancer cell lines IC10,[2],66000 nM
same,IC50 at 24 h,[3],219000 nM
"Cc1cccc2[nH]cc(Cc3c(-c4ccc5ccccc5c4C(=O)O)nc4ccc(F)cn34)c12 [Example 16, 2-{6-fluoro-3-[(4-methyl-1H-indol-3-yl)methyl]imidazo[1,2-a]pyridin-2-yl}-1-naphthoic acid]",IC90,[1],6 nM
same,IC50,[1],1 nM
same,Cell toxicity in HepG2 human liver cancer cell lines IC10,[2],29000 nM
same,IC50 at 24 h,[3],131000 nM
same,Human liver Ms stability (survival ratio),[4],88%
"O=C(O)c1ccccc1Sc1nc2ccccc2n1Cc1cccc2ccccc12 [Comparative Compound 3, 2-{[1-(1-naphthylmethyl)-1H-benzimidazol-2-yl]thio}benzoic acid, reference compound]",IC90,[1],1600 nM
same,IC50,[1],130 nM
same,Cell toxicity in HepG2 human liver cancer cell lines IC10,[2],29000 nM
same,IC50 at 24 h,[3],40000 nM
"Cc1cccc2c1c(Cc1c(-c3ccc4ccccc4c3C(=O)O)nc3ccccn13)cn2CCN1CCOCC1 [Example 23-(4), 2-[3-({4-methyl-1-[2-(4-morpholinyl)ethyl]-1H-indol-3-yl}methyl)imidazo[1,2-a]pyridin-2-yl]-1-naphthoic acid]",IC90,[1],8 nM
same,IC50,[1],2 nM
same,Cell toxicity in HepG2 human liver cancer cell lines IC10,[2],79000 nM
same,IC50 at 24 h,[3],173000 nM
same,Human liver Ms stability (survival ratio),[4],100%
